Results as given in patent US20240279214A1, “ALPHA4 BETA7 INEGRIN ANTAGONISTS AND USES THEREOF” (XinThera, Inc., priority 2022, published 2024).

Target: T1, a4b7 integrin interaction with MadCAM-1 (Homo sapiens, UniProt P13612+P26010)
T1 construct: capture of a4b7 integrin expressing cells, RPMI8866; endogenous in cells; host or cells: RPMI8866
T1 sequence (P13612 34-1032): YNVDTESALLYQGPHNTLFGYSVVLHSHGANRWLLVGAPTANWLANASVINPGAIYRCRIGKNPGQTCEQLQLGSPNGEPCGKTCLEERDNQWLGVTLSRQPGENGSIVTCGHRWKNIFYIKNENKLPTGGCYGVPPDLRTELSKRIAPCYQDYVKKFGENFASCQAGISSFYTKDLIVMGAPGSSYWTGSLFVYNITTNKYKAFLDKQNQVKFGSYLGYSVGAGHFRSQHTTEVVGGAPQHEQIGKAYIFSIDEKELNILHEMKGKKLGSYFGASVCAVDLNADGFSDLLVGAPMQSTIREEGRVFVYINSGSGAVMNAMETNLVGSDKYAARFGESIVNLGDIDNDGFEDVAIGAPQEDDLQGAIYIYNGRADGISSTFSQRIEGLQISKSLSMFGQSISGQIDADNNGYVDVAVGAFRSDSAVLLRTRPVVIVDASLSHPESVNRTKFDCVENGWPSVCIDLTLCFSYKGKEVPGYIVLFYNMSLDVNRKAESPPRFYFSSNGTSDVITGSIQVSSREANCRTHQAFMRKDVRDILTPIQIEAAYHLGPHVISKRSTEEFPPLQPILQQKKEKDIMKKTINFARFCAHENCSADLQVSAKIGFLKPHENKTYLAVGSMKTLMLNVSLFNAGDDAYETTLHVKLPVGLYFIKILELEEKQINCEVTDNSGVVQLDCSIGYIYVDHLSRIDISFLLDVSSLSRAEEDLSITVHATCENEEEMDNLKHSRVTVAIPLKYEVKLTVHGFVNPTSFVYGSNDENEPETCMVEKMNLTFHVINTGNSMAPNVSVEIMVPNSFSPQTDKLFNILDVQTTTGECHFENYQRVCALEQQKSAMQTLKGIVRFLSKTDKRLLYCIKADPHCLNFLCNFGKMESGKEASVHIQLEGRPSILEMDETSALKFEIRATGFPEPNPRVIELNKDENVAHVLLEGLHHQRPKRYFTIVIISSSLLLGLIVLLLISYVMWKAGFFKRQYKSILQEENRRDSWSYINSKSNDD
T1 sequence (P26010 20-798): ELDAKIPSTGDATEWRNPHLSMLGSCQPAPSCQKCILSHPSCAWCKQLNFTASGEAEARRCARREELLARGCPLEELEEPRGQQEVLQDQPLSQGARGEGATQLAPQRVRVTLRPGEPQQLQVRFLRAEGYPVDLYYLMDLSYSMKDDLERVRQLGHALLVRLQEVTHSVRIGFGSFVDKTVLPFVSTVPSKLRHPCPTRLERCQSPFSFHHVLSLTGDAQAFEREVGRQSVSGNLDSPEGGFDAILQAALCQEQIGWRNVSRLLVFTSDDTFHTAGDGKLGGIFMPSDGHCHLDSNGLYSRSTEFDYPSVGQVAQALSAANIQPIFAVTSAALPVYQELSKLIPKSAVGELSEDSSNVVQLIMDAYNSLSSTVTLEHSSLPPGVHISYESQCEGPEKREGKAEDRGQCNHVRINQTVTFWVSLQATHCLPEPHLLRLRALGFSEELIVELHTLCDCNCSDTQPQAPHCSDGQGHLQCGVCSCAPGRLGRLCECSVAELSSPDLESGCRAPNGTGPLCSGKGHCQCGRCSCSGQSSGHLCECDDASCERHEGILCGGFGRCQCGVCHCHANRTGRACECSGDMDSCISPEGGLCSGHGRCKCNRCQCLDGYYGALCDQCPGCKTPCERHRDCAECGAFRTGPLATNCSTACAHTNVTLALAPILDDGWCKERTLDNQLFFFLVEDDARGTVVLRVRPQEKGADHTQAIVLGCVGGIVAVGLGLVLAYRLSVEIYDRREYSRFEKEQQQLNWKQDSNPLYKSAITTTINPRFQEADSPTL
Experiment: a4b7 Cell Capture Assay (RPMI8866 cells on MAdCAM-1 Fc coated plates)
Type: cell-based
Details: 50% human serum, 1 mM MgCl2, 1 hour incubation, CellTiter-Glo luminescence, read-out: a4B7 cell capture assay RMPI8866-MadCAM EC50
In short: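 RPMI8866 cells (1.0×10^6 cells/mL) in 1 mM MgCl2, 25 mM HEPES, 50% human serum were added to plates coated with human MAdCAM-1–IgG1 Fc (1.0 μg/mL) and exposed to compound (9-point, 0.08–1000 nM, 0.1% DMSO) for 1 h at 37 °C. Bound cells were read by CellTiter-Glo luminescence. IC50 came from 4-parameter fit of normalized % inhibition.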

| SMILES | EC50 [nM] |
| --- | --- |
| Cc1cc2cc(c1F)[C@H](CC(=O)O)NC(=O)[C@@H](n1cc(CCN3CC(F)C3)c(C(F)(F)F)cc1=O)c1cc(ccc1F)Oc1cc(C#N)cc(C)c1-2 (single isomer, unassigned) [Example 46] | 1.6 |
| Cc1cc2cc(c1F)[C@H](CC(=O)O)NC(=O)[C@@H](n1ccc(C(F)(F)F)cc1=O)c1cc(ccc1F)Oc1cccc(C)c1-2 (single isomer, unassigned) [Example 42] | 13 |
| Cc1cccc2c1-c1cc(C3CC3)c(F)c(c1)[C@H](CC(=O)O)NC(=O)[C@@H](n1cc(CCN3CC(F)C3)c(C(F)(F)F)cc1=O)c1cccc(c1)O2 (relative stereo) [Example 9, [(14R*,17S)-20-cyclopropyl-19-fluoro-14-{5-[2-(3-fluoroazetidin-1-yl)ethyl]-2-oxo-4-(trifluoromethyl)pyridin-1-yl}-3-methyl-15-oxo-8-oxa-16-azatetracyclo[16.3.1.1^{9,13}.0^{2,7}]tricosa-1(21),2(7),3,5,9,11,13(23),18(22),19-nonaen-17-yl]acetic acid] | 72 |
| Cc1ccc2c(c1C)-c1cc(C)c(F)c(c1)[C@H](CC(=O)O)NC(=O)[C@@H](n1cc(CCN3CC(F)C3)c(C(F)(F)F)cc1=O)c1cc(ccc1F)O2 (relative stereo) [Example 33, [(14R*,17S)-12,19-difluoro-14-{5-[2-(3-fluoroazetidin-1-yl)ethyl]-2-oxo-4-(trifluoromethyl)pyridin-1-yl}-3,4,20-trimethyl-15-oxo-8-oxa-16-azatetracyclo[16.3.1.1^{9,13}.0^{2,7}]tricosa-1(22),2(7),3,5,9,11,13(23),18,20-nonaen-17-yl]acetic acid] | 50 |
| Cc1cc(C)c2c(c1)Oc1ccc(F)c(c1)[C@H](n1cc(CCN3CC(F)C3)c(C(F)(F)F)cc1=O)C(=O)N[C@@H](CC(=O)O)c1cc-2cc(C)c1F (relative stereo) [Example 27, [(14R*,17S)-12,19-difluoro-14-{5-[2-(3-fluoroazetidin-1-yl)ethyl]-2-oxo-4-(trifluoromethyl)pyridin-1-yl}-3,5,20-trimethyl-15-oxo-8-oxa-16-azatetracyclo[16.3.1.1^{9,13}.0^{2,7}]tricosa-1(22),2(7),3,5,9,11,13(23),18,20-nonaen-17-yl]acetic acid] | 3.7 |
| Cc1cc2cc(c1F)[C@H](CC(=O)O)NC(=O)[C@@H](n1cc(CCN3CC(F)C3)c(C(F)(F)F)cc1=O)c1cc(Cl)cc(c1)Oc1ccc(F)c(C)c1-2 (relative stereo) [Example 34, [(14R*,17S)-11-chloro-4,19-difluoro-14-{5-[2-(3-fluoroazetidin-1-yl)ethyl]-2-oxo-4-(trifluoromethyl)pyridin-1-yl}-3,20-dimethyl-15-oxo-8-oxa-16-azatetracyclo[16.3.1.1^{9,13}.0^{2,7}]tricosa-1(22),2(7),3,5,9,11,13(23),18,20-nonaen-17-yl]acetic acid] | 23 |
| Cc1cc2cc(c1F)[C@H](CC(=O)O)NC(=O)[C@@H](n1cc(CCN3CC(F)C3)c(C(F)(F)F)cc1=O)c1cc(ccc1F)Oc1nn(C)c(C)c1-2 (relative stereo) [Example 40, rel-[(13S,16S)-11,18-difluoro-13-{5-[2-(3-fluoroazetidin-1-yl)ethyl]-2-oxo-4-(trifluoromethyl)pyridin-1-yl}-3,4,19-trimethyl-14-oxo-7-oxa-4,5,15-triazatetracyclo[15.3.1.1^{8,12}.0^{2,6}]docosa-1(21),2,5,8,10,12(22),17,19-octaen-16-yl]acetic acid] | 42 |

Now from value to molecule:

| EC50 [nM] | SMILES |
| --- | --- |
| > 100 | Cc1cccc2c1-c1cc(c(C)s1)[C@H](CC(=O)O)NC(=O)[C@@H](n1cc(CCN3CC(F)C3)c(C(F)(F)F)cc1=O)c1cc(ccc1F)CO2 (single isomer, unassigned) [Example 75] |
| 0.95 | Cc1cccc2c1-c1ccc(F)c(c1)[C@H](CC(=O)O)NC(=O)[C@@H](n1cc(CCN3CC(F)C3)c(C(F)(F)F)cc1=O)c1cc(ccc1F)O2 [Example 32, 2-((5S,8S)-1^4,4^4-difluoro-5-(5-(2-(3-fluoroazetidin-1-yl)ethyl)-2-oxo-4-(trifluoromethyl)pyridin-1(2H)-yl)-2^6-methyl-6-oxo-3-oxa-7-aza-1,4(1,3),2(1,2)-tribenzenacyclooctaphane-8-yl)acetic acid] |
| 0.07 | Cc1cc2cc(c1F)[C@H](CC(=O)O)NC(=O)[C@@H](n1cc(CCN(C)C)c(C(F)(F)F)cc1=O)c1cc(ccc1F)Oc1cccc(C)c1-2 (relative stereo) [Example 29, [(14R*,17S)-14-{5-[2-(dimethylamino)ethyl]-2-oxo-4-(trifluoromethyl)pyridin-1-yl}-12,19-difluoro-3,20-dimethyl-15-oxo-8-oxa-16-azatetracyclo[16.3.1.1^{9,13}.0^{2,7}]tricosa-1(22),2(7),3,5,9,11,13(23),18,20-nonaen-17-yl]acetic acid] |
| > 1000 | O=C(O)C[C@@H]1NC(=O)[C@@H](n2cc(CCN3CC(F)C3)c(C(F)(F)F)cc2=O)c2cccc(c2)Oc2cccc(C(F)(F)F)c2-c2cc1c(F)c(C(F)(F)F)c2 (relative stereo) [Example 13, [(14R*,17S)-19-fluoro-14-{5-[2-(3-fluoroazetidin-1-yl)ethyl]-2-oxo-4-(trifluoromethyl)pyridin-1-yl}-15-oxo-3,20-bis(trifluoromethyl)-8-oxa-16-azatetracyclo[16.3.1.1^{9,13}.0^{2,7}]tricosa-1(22),2(7),3,5,9,11,13(23),18,20-nonaen-17-yl]acetic acid] |
| 42 | Cc1cc2cc(c1F)[C@H](CC(=O)O)NC(=O)[C@@H](n1cc(CCN3CC(F)C3)c(C(F)(F)F)cc1=O)c1cc(ccc1F)COc1cc(Cl)cc(C)c1-2 (single isomer, unassigned) [Example 47] |
| 2.6 | Cc1cc2cc(c1F)[C@H](CC(=O)O)NC(=O)[C@@H](n1cc(CCN3CC(F)C3)c(C(F)(F)F)cc1=O)c1cc(ccc1F)Oc1cc(C3COC3)cc(C)c1-2 (single isomer, unassigned) [Example 57] |
| 2.6 | Cc1cc2cc(c1F)[C@H](CC(=O)O)NC(=O)[C@@H](n1cc(CCN3CC(F)C3)c(C(F)(F)F)cc1=O)c1cc(ccc1F)Oc1ccc(F)c(C)c1-2 (relative stereo) [Example 30, [(14R*,17S)-4,12,19-trifluoro-14-{5-[2-(3-fluoroazetidin-1-yl)ethyl]-2-oxo-4-(trifluoromethyl)pyridin-1-yl}-3,20-dimethyl-15-oxo-8-oxa-16-azatetracyclo[16.3.1.1^{9,13}.0^{2,7}]tricosa-1(22),2(7),3,5,9,11,13(23),18,20-nonaen-17-yl]acetic acid] |
| 39 | Cc1cc2cc(c1F)[C@H](CC(=O)O)NC(=O)[C@@H](n1ccc(C(F)(F)F)c(Cl)c1=O)c1cc(ccc1F)Oc1cccc(C)c1-2 (single isomer, unassigned) [Example 76] |
